Experimental data from the supplement of paper PMC10307832.

What was measured:
Experiment in all cases: relative viability (nuclei count vs DMSO), 5 days (fraction); higher = more cells survive
201T = system: 201T
Procedure, shortened: (§1)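 One day after seeding in 1536-well plates, lung cancer cell lines were dosed by pin tool. Dosing was either single-drug or a fixed anchor-drug dose plus five library-drug doses (not always all listed) in √10 steps. After 5 days, nuclei were stained in one fix-and-stain step and counted on 4× images, and relative viability is the nuclei count of treated wells over that of vehicle wells, given as the median of duplicate plates.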

BEN = system: BEN
Procedure, shortened: as §1

CAL-12T = system: CAL-12T
Procedure, shortened: as §1

HCC-78 = system: HCC-78
Procedure, shortened: as §1

HOP-62 = system: HOP-62
Procedure, shortened: as §1

LCLC-97TM1 = system: LCLC-97TM1
Procedure, shortened: as §1

LOU-NH91 = system: LOU-NH91
Procedure, shortened: as §1

NCI-H1355 = system: NCI-H1355
Procedure, shortened: as §1

NCI-H1395 = system: NCI-H1395
Procedure, shortened: as §1

NCI-H1651 = system: NCI-H1651
Procedure, shortened: as §1

NCI-H1793 = system: NCI-H1793
Procedure, shortened: as §1

NCI-H1915 = system: NCI-H1915
Procedure, shortened: as §1

NCI-H1944 = system: NCI-H1944
Procedure, shortened: as §1

NCI-H2126 = system: NCI-H2126
Procedure, shortened: as §1

NCI-H2347 = system: NCI-H2347
Procedure, shortened: as §1

NCI-H3122 = system: NCI-H3122
Procedure, shortened: as §1

NCI-H322M = system: NCI-H322M
Procedure, shortened: as §1

NCI-H441 = system: NCI-H441
Procedure, shortened: as §1

NCI-H650 = system: NCI-H650
Procedure, shortened: as §1

NCI-H838 = system: NCI-H838
Procedure, shortened: as §1

SK-LU-1 = system: SK-LU-1
Procedure, shortened: as §1

SW 1573 = system: SW 1573
Procedure, shortened: as §1

SMILES: CCNC(=O)c1noc(-c2cc(C(C)C)c(O)cc2O)c1-c1ccc(CN2CCOCC2)cc1 [Luminespib] + CC(=O)c1c(C)c2cnc(Nc3ccc(N4CCNCC4)cn3)nc2n(C2CCCC2)c1=O [Palbociclib] (partner 0.5 µM)
- relative viability (201T; first compound 0.002 µM): 0.363
- relative viability (201T; first compound 0.006325 µM): 0.366
- relative viability (201T; first compound 0.02 µM): 0.309
- relative viability (201T; first compound 0.06325 µM): 0.352
- relative viability (201T; first compound 0.2 µM): 0.356
- relative viability (BEN; first compound 0.002 µM): 0.472
- relative viability (BEN; first compound 0.006325 µM): 0.468
- relative viability (BEN; first compound 0.02 µM): 0.438
- relative viability (BEN; first compound 0.06325 µM): 0.409
- relative viability (BEN; first compound 0.2 µM): 0.323
- relative viability (CAL-12T; first compound 0.002 µM): 0.601
- relative viability (CAL-12T; first compound 0.006325 µM): 0.467
- relative viability (CAL-12T; first compound 0.02 µM): 0.161
- relative viability (CAL-12T; first compound 0.06325 µM): 0.11
- relative viability (CAL-12T; first compound 0.2 µM): 0.0956
- relative viability (HCC-78; first compound 0.002 µM): 0.461
- relative viability (HCC-78; first compound 0.02 µM): 0.467
- relative viability (HCC-78; first compound 0.06325 µM): 0.51
- relative viability (HCC-78; first compound 0.2 µM): 0.427
- relative viability (HOP-62; first compound 0.002 µM): 0.451
- relative viability (HOP-62; first compound 0.006325 µM): 0.449
- relative viability (HOP-62; first compound 0.02 µM): 0.594
- relative viability (HOP-62; first compound 0.06325 µM): 0.384
- relative viability (HOP-62; first compound 0.2 µM): 0.235
- relative viability (LCLC-97TM1; first compound 0.002 µM): 0.214
- relative viability (LCLC-97TM1; first compound 0.006325 µM): 0.227
- relative viability (LCLC-97TM1; first compound 0.06325 µM): 0.248
- relative viability (LCLC-97TM1; first compound 0.2 µM): 0.205
- relative viability (LOU-NH91; first compound 0.002 µM): 0.557
- relative viability (LOU-NH91; first compound 0.006325 µM): 0.533
- relative viability (LOU-NH91; first compound 0.02 µM): 0.503
- relative viability (LOU-NH91; first compound 0.06325 µM): 0.375
- relative viability (LOU-NH91; first compound 0.2 µM): 0.354
- relative viability (NCI-H1355; first compound 0.002 µM): 0.415
- relative viability (NCI-H1355; first compound 0.006325 µM): 0.383
- relative viability (NCI-H1355; first compound 0.02 µM): 0.257
- relative viability (NCI-H1355; first compound 0.06325 µM): 0.367
- relative viability (NCI-H1355; first compound 0.2 µM): 0.222
- relative viability (NCI-H1395; first compound 0.002 µM): 0.645
- relative viability (NCI-H1395; first compound 0.006325 µM): 0.631
- relative viability (NCI-H1395; first compound 0.02 µM): 0.498
- relative viability (NCI-H1395; first compound 0.06325 µM): 0.338
- relative viability (NCI-H1395; first compound 0.2 µM): 0.344
- relative viability (NCI-H1651; first compound 0.002 µM): 0.544
- relative viability (NCI-H1651; first compound 0.006325 µM): 0.521
- relative viability (NCI-H1651; first compound 0.02 µM): 0.408
- relative viability (NCI-H1651; first compound 0.06325 µM): 0.423
- relative viability (NCI-H1651; first compound 0.2 µM): 0.332
- relative viability (NCI-H1793; first compound 0.002 µM): 0.306
- relative viability (NCI-H1793; first compound 0.006325 µM): 0.334
- relative viability (NCI-H1793; first compound 0.02 µM): 0.211
- relative viability (NCI-H1793; first compound 0.06325 µM): 0.151
- relative viability (NCI-H1793; first compound 0.2 µM): 0.165
- relative viability (NCI-H1915; first compound 0.002 µM): 0.562
- relative viability (NCI-H1915; first compound 0.006325 µM): 0.507
- relative viability (NCI-H1915; first compound 0.02 µM): 0.478
- relative viability (NCI-H1915; first compound 0.06325 µM): 0.318
- relative viability (NCI-H1915; first compound 0.2 µM): 0.24
- relative viability (NCI-H1944; first compound 0.002 µM): 0.309
- relative viability (NCI-H1944; first compound 0.006325 µM): 0.389
- relative viability (NCI-H1944; first compound 0.02 µM): 0.249
- relative viability (NCI-H1944; first compound 0.06325 µM): 0.316
- relative viability (NCI-H1944; first compound 0.2 µM): 0.303
- relative viability (NCI-H2126; first compound 0.002 µM): 0.337
- relative viability (NCI-H2126; first compound 0.006325 µM): 0.325
- relative viability (NCI-H2126; first compound 0.06325 µM): 0.351
- relative viability (NCI-H2126; first compound 0.2 µM): 0.393
- relative viability (NCI-H2347; first compound 0.002 µM): 0.37
- relative viability (NCI-H2347; first compound 0.006325 µM): 0.408
- relative viability (NCI-H2347; first compound 0.02 µM): 0.38
- relative viability (NCI-H2347; first compound 0.06325 µM): 0.384
- relative viability (NCI-H2347; first compound 0.2 µM): 0.301
- relative viability (NCI-H3122; first compound 0.002 µM): 0.173
- relative viability (NCI-H3122; first compound 0.006325 µM): 0.233
- relative viability (NCI-H3122; first compound 0.02 µM): 0.173
- relative viability (NCI-H3122; first compound 0.06325 µM): 0.197
- relative viability (NCI-H3122; first compound 0.2 µM): 0.196
- relative viability (NCI-H322M; first compound 0.002 µM): 0.406
- relative viability (NCI-H322M; first compound 0.006325 µM): 0.471
- relative viability (NCI-H322M; first compound 0.02 µM): 0.448
- relative viability (NCI-H322M; first compound 0.06325 µM): 0.427
- relative viability (NCI-H322M; first compound 0.2 µM): 0.382
- relative viability (NCI-H441; first compound 0.002 µM): 0.243
- relative viability (NCI-H441; first compound 0.006325 µM): 0.215
- relative viability (NCI-H441; first compound 0.02 µM): 0.143
- relative viability (NCI-H441; first compound 0.06325 µM): 0.102
- relative viability (NCI-H441; first compound 0.2 µM): 0.1
- relative viability (NCI-H650; first compound 0.002 µM): 0.39
- relative viability (NCI-H650; first compound 0.006325 µM): 0.283
- relative viability (NCI-H650; first compound 0.02 µM): 0.277
- relative viability (NCI-H650; first compound 0.06325 µM): 0.181
- relative viability (NCI-H650; first compound 0.2 µM): 0.0632
- relative viability (NCI-H838; first compound 0.002 µM): 0.233
- relative viability (NCI-H838; first compound 0.006325 µM): 0.252
- relative viability (NCI-H838; first compound 0.02 µM): 0.16
- relative viability (NCI-H838; first compound 0.06325 µM): 0.14
- relative viability (NCI-H838; first compound 0.2 µM): 0.105
- relative viability (SK-LU-1; first compound 0.002 µM): 0.456
- relative viability (SK-LU-1; first compound 0.006325 µM): 0.318
- relative viability (SK-LU-1; first compound 0.02 µM): 0.294
- relative viability (SK-LU-1; first compound 0.06325 µM): 0.186
- relative viability (SK-LU-1; first compound 0.2 µM): 0.194
- relative viability (SW 1573; first compound 0.002 µM): 0.426
- relative viability (SW 1573; first compound 0.006325 µM): 0.344
- relative viability (SW 1573; first compound 0.02 µM): 0.396
- relative viability (SW 1573; first compound 0.06325 µM): 0.101
- relative viability (SW 1573; first compound 0.2 µM): 0.0763
